Measured values from patent US11918592B2, “Inhibitors of cyclin dependent kinase 7 (CDK7)” (Syros Pharmaceuticals, Inc., priority 2018, dated 2024).

Experiments:
[1] = target: CDK12 (aa686-1082)/Cyclin K complex (Homo sapiens, UniProt Q9NYV4); assay: CDK12 kinase inhibition assay (Caliper/LabChip EZ Reader)
[2] = target: CDK7/Cyclin H/MAT1 complex (Homo sapiens, UniProt P50613); assay: CDK7 kinase inhibition assay (Caliper/LabChip EZ Reader)
Procedure: (§2) Compounds of the invention were assayed for inhibition of CDK7, CDK9, CDK12, and CDK2 activity at Biortus Biosciences (Jiangyin, Jiangsu Province, P.R. of China) using kinase assays for each CDK developed with a Caliper/LabChip EZ Reader (Perkin Elmer, Waltham, MA).
(§3) Furthermore, the CDK9 inhibition assay used CDK9/Cyclin T1 complex (8 nM) and “5-FAM-CDK9tide” peptide substrate (2 μM, synthesized fluorophore-labeled peptide with the following sequence: 5-FAM-GSRTPMY-NH2 (SEQ ID NO:2) where 5-FAM is defined above and NH2 signifies a C-terminal amide) with 10 mM MgCl2 in the buffer composition listed above. The CDK12 inhibition assay used CDK12 (aa686-1082)/Cyclin K complex (50 nM) and “5-FAM-CDK9tide” (2 μM) as defined above, with 2 mM MgCl2 in the buffer composition above. Additionally, the CDK2 inhibition assay used CDK2/Cyclin E1 complex (0.5 nM) and “5-FAM-CDK7tide” (2 μM) as defined above, with 2 mM MgCl2 in the buffer composition listed above.
(§4) The incubation period at 27° C. for each CDK inhibition assay was chosen such that the fraction of phosphorylated peptide product produced in each assay, relative to the total peptide concentration, was approximately 20% (±5%) for the uninhibited kinase (35 min. for CDK7, 35 min. for CDK2, 3 hr. for CDK12, 15 min. for CDK9).

HCC70 cells = assay: Inhibition of cell proliferation, CyQUANT Direct, HCC70; assay type: cell-based, human; details: Homo sapiens; HCC70 triple negative breast cancer cells, 72-hour; read-out: HCC 70 proliferation calculated IC50
Procedure: (§1) HCC70 and MB453 cells are cell lines derived from human triple negative breast cancer. COV318 and COV504 cells are cell lines derived from human ovarian cancer. Representative compounds of the invention were tested at different concentrations (from 4 μM to 126.4 pM; 0.5 log serial dilutions) for their ability to inhibit the proliferation of each of these cell lines. Known CDK inhibitors dinaciclib or N-((1S,3R)-3-((5-chloro-4-(1H-indol-3-yl) pyrimidin-2-yl)amino)cyclohexyl)-5-((E)-4-(dimethylamino)but-2-enamido)picolinamide and triptolide were used as positive controls. Cells were seeded at approximately 2,000 cells/well and grown in ATCC-formulated RPMI-1640 Medium (ATCC 30-2001)+10% FBS. The cells were cultured at 37° C. in a humidified chamber in the presence of 5% CO2. Proliferation assays were conducted over a 72-hour time period. CyQUANT® Direct Cell Proliferation Assay (Life Technologies, Chicago, IL USA) was used to assess the anti-proliferative effects of the compounds following manufacturer's directions and utilizing the reagents supplied with the CyQUANT® Direct Cell kit.

COV318 cells = assay: Inhibition of cell proliferation, CyQUANT Direct, COV318; assay type: cell-based; details: Homo sapiens; COV318 ovarian cancer cells, 72-hour; read-out: COV 318 proliferation calculated IC50
Procedure: as §1

CDK9/Cyclin T1 complex = CDK9/Cyclin T1 complex (Homo sapiens, UniProt P50750); assay: CDK9 kinase inhibition assay (Caliper/LabChip EZ Reader)
Sequence of CDK9/Cyclin T1 complex (P50750 whole entry): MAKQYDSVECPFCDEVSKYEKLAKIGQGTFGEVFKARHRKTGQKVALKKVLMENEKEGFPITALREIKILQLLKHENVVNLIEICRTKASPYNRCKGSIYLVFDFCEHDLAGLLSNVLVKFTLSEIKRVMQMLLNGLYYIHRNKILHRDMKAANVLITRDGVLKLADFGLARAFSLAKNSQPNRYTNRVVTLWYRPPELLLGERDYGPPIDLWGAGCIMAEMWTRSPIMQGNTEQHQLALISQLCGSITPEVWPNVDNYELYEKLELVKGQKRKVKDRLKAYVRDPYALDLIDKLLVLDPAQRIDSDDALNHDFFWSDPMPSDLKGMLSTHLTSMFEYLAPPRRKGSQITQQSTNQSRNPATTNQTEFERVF
Sequence of CDK9/Cyclin T1 complex (O60563 whole entry partner): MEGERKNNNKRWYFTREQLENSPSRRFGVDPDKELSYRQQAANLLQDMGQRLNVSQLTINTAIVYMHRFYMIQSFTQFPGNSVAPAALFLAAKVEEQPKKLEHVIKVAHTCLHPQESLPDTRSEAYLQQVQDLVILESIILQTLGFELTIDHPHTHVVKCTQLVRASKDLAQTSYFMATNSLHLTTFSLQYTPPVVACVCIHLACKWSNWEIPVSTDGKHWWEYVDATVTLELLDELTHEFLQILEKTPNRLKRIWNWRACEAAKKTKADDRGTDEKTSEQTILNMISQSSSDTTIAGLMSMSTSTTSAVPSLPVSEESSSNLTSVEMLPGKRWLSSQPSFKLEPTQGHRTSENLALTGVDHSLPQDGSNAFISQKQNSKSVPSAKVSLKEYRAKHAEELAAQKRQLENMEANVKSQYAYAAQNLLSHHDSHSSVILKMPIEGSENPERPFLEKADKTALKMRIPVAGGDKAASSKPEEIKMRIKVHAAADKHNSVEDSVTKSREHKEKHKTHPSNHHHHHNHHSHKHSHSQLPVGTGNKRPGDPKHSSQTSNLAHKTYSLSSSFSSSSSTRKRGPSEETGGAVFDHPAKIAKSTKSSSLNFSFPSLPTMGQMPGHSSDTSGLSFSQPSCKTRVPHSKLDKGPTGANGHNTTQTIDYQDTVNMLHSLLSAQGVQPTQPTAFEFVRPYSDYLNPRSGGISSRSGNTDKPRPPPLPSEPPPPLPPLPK
Procedure: as §2, §3, §4

COV504 cells = assay: Inhibition of cell proliferation, CyQUANT Direct, COV504; assay type: cell-based; details: Homo sapiens; COV504 ovarian cancer cells, 72-hour; read-out: COV 504 proliferation calculated IC50
Procedure: as §1

MB453 cells = assay: Inhibition of cell proliferation, CyQUANT Direct, MB453; assay type: cell-based, human; details: Homo sapiens; MB453 triple negative breast cancer cells, 72-hour; read-out: MB 453 proliferation calculated IC50
Procedure: as §1

CDK2/Cyclin E1 complex = CDK2/Cyclin E1 complex (Homo sapiens, UniProt P24941); assay: CDK2 kinase inhibition assay (Caliper/LabChip EZ Reader)
Procedure: as §2, §3, §4

Sequence of CDK12 (aa686-1082)/Cyclin K complex (Q9NYV4 686-1082): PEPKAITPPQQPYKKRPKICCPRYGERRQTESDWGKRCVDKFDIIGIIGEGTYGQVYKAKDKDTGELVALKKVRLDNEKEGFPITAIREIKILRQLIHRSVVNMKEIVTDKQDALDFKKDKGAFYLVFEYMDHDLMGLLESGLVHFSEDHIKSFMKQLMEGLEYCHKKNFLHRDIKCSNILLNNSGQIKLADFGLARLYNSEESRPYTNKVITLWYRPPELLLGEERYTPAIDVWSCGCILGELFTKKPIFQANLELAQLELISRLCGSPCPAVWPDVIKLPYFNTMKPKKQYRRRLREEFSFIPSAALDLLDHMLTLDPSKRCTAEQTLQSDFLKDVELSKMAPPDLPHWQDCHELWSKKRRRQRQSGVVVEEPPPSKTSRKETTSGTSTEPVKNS
Sequence of CDK12 (aa686-1082)/Cyclin K complex (O75909 whole entry partner, the tested form may be a part): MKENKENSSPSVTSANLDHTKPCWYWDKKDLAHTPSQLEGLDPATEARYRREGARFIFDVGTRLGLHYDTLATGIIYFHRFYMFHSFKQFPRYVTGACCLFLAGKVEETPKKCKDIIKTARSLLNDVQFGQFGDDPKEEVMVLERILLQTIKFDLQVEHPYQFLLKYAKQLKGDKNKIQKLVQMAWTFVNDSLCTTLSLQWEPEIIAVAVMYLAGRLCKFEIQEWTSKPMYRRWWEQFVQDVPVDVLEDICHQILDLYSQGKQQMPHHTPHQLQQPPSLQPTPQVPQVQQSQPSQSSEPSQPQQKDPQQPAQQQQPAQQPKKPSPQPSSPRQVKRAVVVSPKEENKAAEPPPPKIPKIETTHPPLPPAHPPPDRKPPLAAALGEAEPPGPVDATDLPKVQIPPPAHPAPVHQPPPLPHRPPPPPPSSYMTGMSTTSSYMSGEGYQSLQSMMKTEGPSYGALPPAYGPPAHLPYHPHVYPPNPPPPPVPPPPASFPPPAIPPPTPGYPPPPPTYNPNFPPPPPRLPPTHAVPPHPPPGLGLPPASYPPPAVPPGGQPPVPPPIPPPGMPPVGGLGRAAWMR
Sequence of CDK7/Cyclin H/MAT1 complex (P50613 whole entry): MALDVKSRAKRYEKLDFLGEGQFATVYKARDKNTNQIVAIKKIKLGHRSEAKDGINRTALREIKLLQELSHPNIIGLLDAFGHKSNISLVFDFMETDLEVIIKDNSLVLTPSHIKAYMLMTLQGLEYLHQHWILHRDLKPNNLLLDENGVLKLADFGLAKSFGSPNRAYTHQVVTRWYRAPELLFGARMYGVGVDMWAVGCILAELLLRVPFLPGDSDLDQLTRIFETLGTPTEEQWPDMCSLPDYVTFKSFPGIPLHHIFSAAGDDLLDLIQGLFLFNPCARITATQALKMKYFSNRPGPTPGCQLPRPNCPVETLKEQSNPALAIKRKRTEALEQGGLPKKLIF
Sequence of CDK7/Cyclin H/MAT1 complex (P51946 whole entry partner): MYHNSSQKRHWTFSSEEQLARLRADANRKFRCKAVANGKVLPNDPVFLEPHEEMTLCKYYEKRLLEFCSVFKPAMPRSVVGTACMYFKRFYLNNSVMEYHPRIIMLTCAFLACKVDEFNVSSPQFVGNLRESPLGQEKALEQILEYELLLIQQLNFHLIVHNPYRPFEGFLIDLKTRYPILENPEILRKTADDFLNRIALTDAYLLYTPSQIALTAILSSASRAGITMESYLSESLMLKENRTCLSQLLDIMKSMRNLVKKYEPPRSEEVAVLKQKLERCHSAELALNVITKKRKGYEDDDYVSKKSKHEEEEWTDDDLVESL
Sequence of CDK7/Cyclin H/MAT1 complex (P51948 whole entry partner): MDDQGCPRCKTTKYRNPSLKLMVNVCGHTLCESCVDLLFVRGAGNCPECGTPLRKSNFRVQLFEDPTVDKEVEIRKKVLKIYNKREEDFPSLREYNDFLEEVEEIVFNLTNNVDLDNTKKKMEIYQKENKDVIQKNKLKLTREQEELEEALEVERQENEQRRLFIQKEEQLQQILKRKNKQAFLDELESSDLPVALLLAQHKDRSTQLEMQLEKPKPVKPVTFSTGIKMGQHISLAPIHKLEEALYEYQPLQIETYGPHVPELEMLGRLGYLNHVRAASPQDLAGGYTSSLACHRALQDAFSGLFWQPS

SMILES | IC50 [1] [µM] | IC50 [2] [µM] | IC50 (HCC70 cells) [µM] | IC50 (COV318 cells) [µM] | IC50 (CDK9/Cyclin T1 complex) [µM] | IC50 (COV504 cells) [µM] | IC50 (MB453 cells) [µM] | IC50 (CDK2/Cyclin E1 complex) [µM]
Cc1noc(C)c1-c1ccc2c(-c3nc(N[C@H]4CCC[C@@H]4NCCF)ncc3C(F)(F)F)c[nH]c2n1 [Compound 151, (1S,2S)—N1-[4-[6-(3,5-dimethylisoxazol-4-yl)-1H-pyrrolo[2,3-b]pyridin-3-yl]-5-(trifluoromethyl)pyrimidin-2-yl]-N2-(2-fluoroethyl)cyclopentane-1,2-diamine] | > 0.5 | < 0.03 | < 0.1 | > 2 | > 0.5 | < 0.1 | 0.1 to 0.5 | > 0.5
CN(C)[C@H]1CC[C@@H]1Nc1ncc(C(F)(F)F)c(-c2c[nH]c3cc(C#N)ccc23)n1 [Compound 126, 3-[2-[[(1S,2S)-2-(dimethylamino)cyclobutyl]-amino]-5-(trifluoromethyl)pyrimidin-4-yl]-1H-indole-6-carbonitrile] | > 0.5 | 0.03 to 0.1 | > 2 | > 2 | > 0.5 | 0.1 to 0.5 | 0.1 to 0.5 | > 0.5
N#Cc1ccc2c(-c3nc(N[C@H]4CC[C@@H]4N4CCCC4)ncc3C(F)(F)F)c[nH]c2c1 [Compound 135, 3-[2-[[(1S,2S)-2-pyrrolidin-1-ylcyclobutyl]-amino]-5-(trifluoromethyl)pyrimidin-4-yl]-1H-indole-6-carbonitrile] | > 0.5 | < 0.03 | > 2 | > 2 | > 0.5 | 0.5 to 2 | 0.1 to 0.5 | > 0.5
Cc1noc(C)c1-c1ccc2c(-c3nc(N[C@H]4CCC[C@H]4N4CC(F)C4)ncc3C(F)(F)F)c[nH]c2n1 [Compound 156, 4-[6-(3,5-dimethylisoxazol-4-yl)-1H-pyrrolo [2,3-b]pyridin-3-yl]-N-[(1S, 2R)-2-(3-fluoroazetidin-1-yl)cyclopentyl]-5-(trifluoromethyl) pyrimidin-2-amine] | > 0.5 | < 0.03 | 0.1 to 0.5 | > 2 | > 0.5 | 0.1 to 0.5 | 0.5 to 2 | > 0.5
Cc1noc(C)c1-c1ccc2c(-c3nc(NC4CCCC4N)ncc3C(F)(F)F)c[nH]c2n1 (stereo not drawn) [Compound 127] | > 0.5 | < 0.03 | < 0.1 | 0.1 to 0.5 | > 0.5 | < 0.1 | < 0.1 | > 0.5
COC1CN([C@@H]2CCC[C@@H]2Nc2ncc(C(F)(F)F)c(-c3c[nH]c4nc(-c5c(C)noc5C)ccc34)n2)C1 [Compound 165, 4-[6-(3,5-dimethylisoxazol-4-yl)-1H-pyrrolo[2,3-b]pyridin-3-yl]-N-[(1S,2R)-2-(3-methoxyazetidin-1-yl)cyclopentyl]-5-(trifluoromethyl)pyrimidin-2-amine] | > 0.5 | 0.03 to 0.1 | > 2 | > 2 | > 0.5 | > 2 | 0.5 to 2 | > 0.5
N#Cc1ccc2c(-c3nc(N[C@H]4CN[C@H](CO)C4)ncc3C(F)(F)F)c[nH]c2c1 [Compound 112] | > 0.5 | 0.1 to 0.5 | > 2 | > 2 | > 0.5 | > 2 | 0.5 to 2 | > 0.5
Cc1nsc(-c2ccc3c(-c4nc(N[C@H]5CCC[C@@H]5N)ncc4C(F)(F)F)c[nH]c3n2)n1 [Compound 158, (1S,2S)—N1-[4-[6-(3-methyl-1,2,4-thiadiazol-5-yl)-1H-pyrrolo [2,3-b]pyridin-3-yl]-5-(trifluoromethyl)pyrimidin-2-yl]cyclopentane-1,2-diamine] | > 0.5 | < 0.03 | 0.5 to 2 | > 2 | > 0.5 | > 2 | 0.5 to 2 | > 0.5
CN1CC[C@H](Nc2ncc(C(F)(F)F)c(-c3c[nH]c4cc(C#N)ccc34)n2)C1 [Compound 109] | > 0.5 | 0.1 to 0.5 | 0.5 to 2 | 0.5 to 2 | > 0.5 | 0.5 to 2 | 0.5 to 2 | > 0.5
Cc1noc(C)c1-c1ccc2c(-c3nc(N[C@H]4CCC[C@@H]4N4CCCC4)ncc3C(F)(F)F)c[nH]c2c1 [Compound 143, 4-[6-(3,5-dimethylisoxazol-4-yl)-1H-indol-3-yl]-N-[(1S,2S)-2-pyrrolidin-1-ylcyclopentyl]-5-(trifluoromethyl)pyrimidin-2-amine] | > 0.5 | < 0.03 | 0.1 to 0.5 | 0.5 to 2 | > 0.5 | < 0.1 | < 0.1 | > 0.5
Cc1noc(C)c1-c1ccc2c(-c3nc(N[C@H]4CCC[C@H]4N4CC(F)(F)C4)ncc3C(F)(F)F)c[nH]c2n1 [Compound 167, N-[(1S,2R)-2-(3,3-difluoroazetidin-1-yl)cyclopentyl]-4-[6-(3,5-dimethylisoxazol-4-yl)-1H-pyrrolo[2,3-b]pyridin-3-yl]-5-(trifluoromethyl)pyrimidin-2-amine] | > 0.5 | > 0.5 | > 2 | > 2 | > 0.5 | > 2 | > 2 | > 0.5
Cc1noc(C)c1-c1ccc2c(-c3nc(N[C@H]4CCC[C@@H]4NCC(F)F)ncc3C(F)(F)F)c[nH]c2n1 [Compound 147, (1S, 2S)—N2-(2,2-difluoroethyl)-N1-[4-[6-(3,5-dimethylisoxazol-4-yl)-1H-pyrrolo[2,3-b]pyridin-3-yl]-5-(trifluoromethyl)pyrimidin-2-yl] cyclopentane-1,2-diamine] | > 0.5 | < 0.03 | 0.5 to 2 | > 2 | > 0.5 | 0.1 to 0.5 | 0.1 to 0.5 | > 0.5
N#Cc1ccc2c(-c3nc(N[C@@H]4CNC[C@H]4F)ncc3C(F)(F)F)c[nH]c2c1 (relative stereo) [Compound 110] | > 0.5 | 0.1 to 0.5 | 0.5 to 2 | > 2 | > 0.5 | 0.5 to 2 | > 2 | > 0.5
N#Cc1ccc2c(-c3nc(N[C@H]4CC[C@@H]4N4CCOCC4)ncc3C(F)(F)F)c[nH]c2c1 [Compound 130] | > 0.5 | 0.1 to 0.5 | > 2 | > 2 | > 0.5 | > 2 | > 2 | > 0.5
N[C@H]1CCC[C@@H]1Nc1ncc(C(F)(F)F)c(-c2c[nH]c3cc(-c4nccs4)ccc23)n1 [Compound 117, (1S,2S)—N1-[4-(6-thiazol-2-yl-1H-indol-3-yl)-5-(trifluoromethyl)pyrimidin-2-yl]-cyclopentane-1,2-diamine] | > 0.5 | < 0.03 | 0.1 to 0.5 | > 2 | > 0.5 | 0.1 to 0.5 | 0.1 to 0.5 | > 0.5
CCO[C@@H]1CNC[C@H]1Nc1ncc(C(F)(F)F)c(-c2c[nH]c3cc(C#N)ccc23)n1 (relative stereo) [Compound 111] | > 0.5 | 0.1 to 0.5 | > 2 | > 2 | > 0.5 | > 2 | > 2 | > 0.5
Cc1noc(C)c1-c1ccc2c(-c3nc(N[C@H]4CCC[C@H]4N4CC(O)C4)ncc3C(F)(F)F)c[nH]c2n1 [Compound 163, 1-[(1R,2S)-2-[[4-[6-(3,5-dimethylisoxazol-4-yl)-1H-pyrrolo[2,3-b]pyridin-3-yl]-5-(trifluoromethyl)pyrimidin-2-yl]amino]cyclopentyl]azetidin-3-ol] | > 0.5 | 0.03 to 0.1 | > 2 | > 2 | > 0.5 | > 2 | 0.5 to 2 | > 0.5
CC(C)N1CC[C@H](Nc2ncc(C(F)(F)F)c(-c3c[nH]c4cc(C#N)ccc34)n2)C1 [Compound 105] | > 0.5 | > 0.5 | > 2 | > 2 | > 0.5 | > 2 | > 2 | > 0.5
